Laboratory results published in patent US20050214385A1, “Chromium/biotin treatment of dyslipidemia and diet-induced post prandial hyperglycemia” (priority 2001, published 2005).

Test system: glycogen synthetase (GS) mRNA
Test: Glycogen synthetase (GS) mRNA expression in HSMC
Format: cell-based, human
Conditions: CrPic 10 ng/ml, biotin 10 pm, FIG. 4B
Protocol: To evaluate the cellular mechanism by […] biotin enhance glycogen synthesis, glycogen synthetase (“GS”) mRNA and glycogen synthesis were assessed. HSMC was incubated with CrPic at 10 ng/ml, biotin at 10 pm, and both CrPic and biotin. […] When evaluating GS mRNA levels, chromium increased gene expression of GS by 26%, biotin by 15%, and the combination by 33%. […] RNA Preparation: Total RNA from the skeletal muscle biopsy was isolated using guanium […], phenol-chloroform extraction, and alcohol precipitation. RNA sample was quantified by spectrophotometer. The absorption ratio (260:280 nm) was between 1.8 to 2.0 for all preparations and the integrity of the RNA was verified on agarose gel colored with ethidium bromide. For RT-PCR, fresh isolated total RNA was used. GS mRNA Level Analysis: GS mRNA levels were analyzed using one-step RT-PCR kits (Clontech Laboratories, Inc., Palo Alto, Calif.). GS first-strand CDNA synthesis was performed from 1 μh of total RNA with 1×[…] plus enzyme mix in 40 mM Tricine, 20 mM Kcl, 3 mM MgCl2, 3.75 ug/ml BSA, 0.2 mM deoxynucleoside triphosphates, 400 pmol of oligo(dt) primer, and 200 pm GS primers (Sense [NT], antisense [NT]) in a final volume of 50 μl. The reaction mixtures were subjected to incubations for 60 min. at 50° C. in the Eppendorf Master gradient cycler (Westbury, N.Y.). […] The band densities were evaluated (Alpha Imager 2000, San Leandro, Calif.). […]

chromium picolinate [CrPic]
increase of gene expression of GS (GS mRNA levels): 26%
